Target: Isoform Bcl-X(L) of Bcl-2-like protein 1 (Bcl-xL) (Homo sapiens, UniProt Q07817)
Assay: DELFIA Assay
Excerpt: In order to figure whether these compounds were capable of displacing the interactions between Bci-XL and it's pro-apoptotic counterparts, it was testes in a heterogeneous lanthanide-based assay that have recently developed based on the DELFIA (dissociation enhanced lanthanide fluoro-immuno assay)technology (Perkin-Elmer).

Sequence of Isoform Bcl-X(L) of Bcl-2-like protein 1 (Bcl-xL) (Q07817 whole entry G70A, canonical isoform): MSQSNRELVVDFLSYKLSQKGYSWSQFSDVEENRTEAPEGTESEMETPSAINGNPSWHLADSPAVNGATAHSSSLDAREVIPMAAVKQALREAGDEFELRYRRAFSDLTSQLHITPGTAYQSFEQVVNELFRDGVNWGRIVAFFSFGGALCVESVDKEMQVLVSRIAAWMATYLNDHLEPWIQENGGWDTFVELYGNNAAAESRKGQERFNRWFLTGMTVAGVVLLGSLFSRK

O=C(O)c1ccccc1C(=O)c1ccc(Sc2ccc(Cl)cc2)c([N+](=O)[O-])c1 [BI-21C6]
IC50: 0.5 µM

Cc1csc(NC(=O)c2ccccc2C(=O)O)c1-c1nc2ccccc2s1 [BI-21C4]
IC50: 3.3 µM

O=C(O)c1ccccc1C(=O)c1ccc(Sc2ccccc2)c([N+](=O)[O-])c1 [BI-21C7]
IC50: 5.7 µM

N#Cc1c(-c2ccc3c(c2)OCO3)cc(-c2ccccc2O)[nH]c1=O [BI-21C5]
IC50: 5.1 µM
Kd: 19.8 µM

From BindingDB's records for doi:10.1016/j.bioorg.2007.03.001 (Burnham Institute For Medical Research, 2007)
